Measured values reported in PubChem BioAssay (NCI).
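Five concentrations, 48 hours, 96-well plates. TGI: total growth inhibition.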

Assays:
Assay in all cases: NCI tumour cell line growth inhibition, 48 h
M19-MEL melanoma = test system: M19-MEL melanoma
SNB-78 CNS = test system: SNB-78 CNS
A549 NSCLC = test system: A549 NSCLC
SF-268 CNS = test system: SF-268 CNS
CAKI-1 renal = test system: CAKI-1 renal
MALME-3M melanoma = test system: MALME-3M melanoma
SNB-75 CNS = test system: SNB-75 CNS
SK-OV-3 ovarian = test system: SK-OV-3 ovarian
UACC-62 melanoma = test system: UACC-62 melanoma
IGROV1 ovarian = test system: IGROV1 ovarian
LOX IMVI melanoma = test system: LOX IMVI melanoma
EKVX NSCLC = test system: EKVX NSCLC
UACC-257 melanoma = test system: UACC-257 melanoma
OVCAR-8 ovarian = test system: OVCAR-8 ovarian
SK-MEL-5 melanoma = test system: SK-MEL-5 melanoma
OVCAR-3 ovarian = test system: OVCAR-3 ovarian
HCT-15 colon = test system: HCT-15 colon
NCI-H460 lung = test system: NCI-H460 lung
XF 498 CNS = test system: XF 498 CNS
CCRF-CEM leukemia = test system: CCRF-CEM leukemia
NCI-H522 lung = test system: NCI-H522 lung
TK-10 renal = test system: TK-10 renal
HL-60(TB) leukemia = test system: HL-60(TB) leukemia
HOP-18 NSCLC = test system: HOP-18 NSCLC
HOP-92 NSCLC = test system: HOP-92 NSCLC
HCC-2998 colon = test system: HCC-2998 colon
A498 renal = test system: A498 renal
M14 melanoma = test system: M14 melanoma
OVCAR-4 ovarian = test system: OVCAR-4 ovarian
RPMI-8226 leukemia = test system: RPMI-8226 leukemia
KM12 colon = test system: KM12 colon
HCT-116 colon = test system: HCT-116 colon
DMS 273 small cell lung = test system: DMS 273 small cell lung
K-562 leukemia = test system: K-562 leukemia
SNB-19 CNS = test system: SNB-19 CNS
HT29 colon = test system: HT29 colon
COLO 205 colon = test system: COLO 205 colon
NCI-H23 lung = test system: NCI-H23 lung
KM20L2 colon = test system: KM20L2 colon
MOLT-4 leukemia = test system: MOLT-4 leukemia
DLD-1 colon = test system: DLD-1 colon
ACHN renal = test system: ACHN renal
LXFL 529 NSCLC = test system: LXFL 529 NSCLC
RXF 393 renal = test system: RXF 393 renal
U251 CNS = test system: U251 CNS
SF-539 CNS = test system: SF-539 CNS
OVCAR-5 ovarian = test system: OVCAR-5 ovarian
NCI-H226 lung = test system: NCI-H226 lung
SF-295 CNS = test system: SF-295 CNS
HOP-62 NSCLC = test system: HOP-62 NSCLC
RXF-631 renal = test system: RXF-631 renal
SR leukemia = test system: SR leukemia
SK-MEL-2 melanoma = test system: SK-MEL-2 melanoma
SK-MEL-28 melanoma = test system: SK-MEL-28 melanoma
786-0 renal = test system: 786-0 renal
SN12C renal = test system: SN12C renal
UO-31 renal = test system: UO-31 renal
DMS 114 small cell lung = test system: DMS 114 small cell lung

Q: What does the source list for `CCOC(=O)C1=C(C)NC(=S)NC1c1ccccc1` (stereo not drawn)?
A: TGI (M19-MEL melanoma): > 58.9 µM; TGI (SNB-78 CNS): > 100 µM; TGI (A549 NSCLC): > 100 µM; TGI (SF-268 CNS): > 100 µM; TGI (CAKI-1 renal): > 41.2 µM; TGI (MALME-3M melanoma): > 100 µM; TGI (SNB-75 CNS): > 100 µM; TGI (SK-OV-3 ovarian): > 100 µM; TGI (UACC-62 melanoma): > 100 µM; TGI (IGROV1 ovarian): > 100 µM; TGI (LOX IMVI melanoma): > 100 µM; TGI (EKVX NSCLC): > 100 µM; TGI (UACC-257 melanoma): > 100 µM; TGI (OVCAR-8 ovarian): > 100 µM; TGI (SK-MEL-5 melanoma): > 100 µM; TGI (OVCAR-3 ovarian): > 100 µM; TGI (HCT-15 colon): > 56 µM; TGI (NCI-H460 lung): > 100 µM; TGI (XF 498 CNS): 99.7 µM; TGI (CCRF-CEM leukemia): > 76.9 µM; TGI (NCI-H522 lung): > 100 µM; TGI (TK-10 renal): > 100 µM; TGI (HL-60(TB) leukemia): > 100 µM; TGI (HOP-18 NSCLC): 98.4 µM; TGI (HOP-92 NSCLC): > 100 µM; TGI (HCC-2998 colon): > 100 µM; TGI (A498 renal): > 100 µM; TGI (M14 melanoma): > 100 µM; TGI (OVCAR-4 ovarian): > 100 µM; TGI (RPMI-8226 leukemia): > 65.6 µM; TGI (KM12 colon): > 100 µM; TGI (HCT-116 colon): > 100 µM; TGI (DMS 273 small cell lung): > 100 µM; TGI (K-562 leukemia): > 75.1 µM; TGI (SNB-19 CNS): > 22.5 µM; TGI (HT29 colon): > 100 µM; TGI (COLO 205 colon): > 60.7 µM; TGI (NCI-H23 lung): > 100 µM; TGI (KM20L2 colon): > 56.5 µM; TGI (MOLT-4 leukemia): > 100 µM; TGI (DLD-1 colon): > 100 µM; TGI (ACHN renal): > 100 µM; TGI (LXFL 529 NSCLC): > 100 µM; TGI (RXF 393 renal): > 100 µM; TGI (U251 CNS): > 56.2 µM; TGI (SF-539 CNS): > 100 µM; TGI (OVCAR-5 ovarian): > 100 µM; TGI (NCI-H226 lung): > 100 µM; TGI (SF-295 CNS): > 100 µM; TGI (HOP-62 NSCLC): > 100 µM; TGI (RXF-631 renal): > 100 µM; TGI (SR leukemia): 50.2 µM; TGI (SK-MEL-2 melanoma): > 100 µM; TGI (SK-MEL-28 melanoma): > 100 µM; TGI (786-0 renal): > 100 µM; TGI (SN12C renal): > 100 µM; TGI (UO-31 renal): > 57.1 µM; TGI (DMS 114 small cell lung): > 57.2 µM
